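In this assay, cells in 96-well plates receive the compound at five concentrations for 48 hours. Endpoints are linearly interpolated between the surrounding concentrations. At the GI50, growth is halved. The concentration for full growth arrest is given as TGI.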
Key:
Assay in all cases: inhibition of tumour cell growth, NCI panel, 48 h
ACHN renal = system: ACHN renal
HL-60(TB) leukemia = system: HL-60(TB) leukemia
NCI-H460 lung = system: NCI-H460 lung
OVCAR-4 ovarian = system: OVCAR-4 ovarian
RXF 393 renal = system: RXF 393 renal
SK-MEL-2 melanoma = system: SK-MEL-2 melanoma
UACC-257 melanoma = system: UACC-257 melanoma
MDA-MB-231 breast = system: MDA-MB-231 breast

COc1cc(C2SCC(=O)N2c2ncc(C)s2)cc(OC)c1OC (centres undefined)
GI50 (ACHN renal): 30.8 µM
TGI (ACHN renal): > 50 µM
GI50 (HL-60(TB) leukemia): 28.7 µM
TGI (HL-60(TB) leukemia): > 50 µM
GI50 (NCI-H460 lung): 25.7 µM
TGI (NCI-H460 lung): > 50 µM
GI50 (OVCAR-4 ovarian): > 50 µM
TGI (OVCAR-4 ovarian): > 50 µM
GI50 (RXF 393 renal): 27.5 µM
TGI (RXF 393 renal): > 50 µM
GI50 (SK-MEL-2 melanoma): > 50 µM
TGI (SK-MEL-2 melanoma): > 50 µM
GI50 (UACC-257 melanoma): > 50 µM
TGI (UACC-257 melanoma): > 50 µM

O=C1C=CC(=Nc2cc(Br)c(O)c(Br)c2)C=C1
GI50 (ACHN renal): 18.9 µM
TGI (ACHN renal): 46.3 µM
GI50 (HL-60(TB) leukemia): 7.65 µM
TGI (HL-60(TB) leukemia): 51.2 µM
GI50 (MDA-MB-231 breast): 31.5 µM
TGI (MDA-MB-231 breast): > 100 µM
GI50 (NCI-H460 lung): 27.2 µM
TGI (NCI-H460 lung): 84.9 µM
GI50 (OVCAR-4 ovarian): 43 µM
TGI (OVCAR-4 ovarian): > 100 µM
GI50 (RXF 393 renal): 12.5 µM
TGI (RXF 393 renal): 63.8 µM
GI50 (SK-MEL-2 melanoma): 23 µM
TGI (SK-MEL-2 melanoma): 75.2 µM
GI50 (UACC-257 melanoma): 32.5 µM
TGI (UACC-257 melanoma): > 100 µM

CC(C)(C)c1cc(-n2c(-c3ccc(Cl)cc3)nc3cc(C(=O)Nc4ccc(Cl)cc4)ccc32)n[nH]1
GI50 (ACHN renal): 5.18 µM
TGI (ACHN renal): > 100 µM
GI50 (HL-60(TB) leukemia): 3.18 µM
TGI (HL-60(TB) leukemia): > 100 µM
GI50 (MDA-MB-231 breast): 23.7 µM
TGI (MDA-MB-231 breast): > 100 µM
GI50 (NCI-H460 lung): 3.57 µM
TGI (NCI-H460 lung): > 100 µM
GI50 (OVCAR-4 ovarian): 6.11 µM
TGI (OVCAR-4 ovarian): > 100 µM
GI50 (RXF 393 renal): 8.57 µM
TGI (RXF 393 renal): 63.6 µM
GI50 (SK-MEL-2 melanoma): 2.89 µM
TGI (SK-MEL-2 melanoma): 9.58 µM
GI50 (UACC-257 melanoma): 7.92 µM
TGI (UACC-257 melanoma): > 100 µM

O=c1[nH]c(=S)[nH]c2c1CN(CCCN1CCOCC1)CN2
TGI (ACHN renal): 92 µM
TGI (MDA-MB-231 breast): 66.4 µM
TGI (NCI-H460 lung): 87.2 µM
TGI (OVCAR-4 ovarian): > 100 µM
TGI (SK-MEL-2 melanoma): 39.8 µM
TGI (UACC-257 melanoma): > 100 µM

CC(=O)C1=C(O)C=C2Oc3c(C(=O)/C=C/c4c(Cl)cccc4Cl)c(O)c(C)c(O)c3[C@]2(C)C1=O
GI50 (ACHN renal): 1.64 µM
TGI (ACHN renal): 8.07 µM
GI50 (HL-60(TB) leukemia): 0.849 µM
TGI (HL-60(TB) leukemia): 7.08 µM
GI50 (MDA-MB-231 breast): 1.3 µM
TGI (MDA-MB-231 breast): 5.72 µM
GI50 (NCI-H460 lung): 1.17 µM
TGI (NCI-H460 lung): 4.46 µM
GI50 (OVCAR-4 ovarian): 3.19 µM
TGI (OVCAR-4 ovarian): 11.3 µM
GI50 (RXF 393 renal): 2.32 µM
TGI (RXF 393 renal): 5.03 µM
GI50 (SK-MEL-2 melanoma): 0.64 µM
TGI (SK-MEL-2 melanoma): 2.87 µM
GI50 (UACC-257 melanoma): 2.01 µM
TGI (UACC-257 melanoma): 6.82 µM

O=C(c1ccccc1)C(CN1CCCCC1)c1ccccc1 (centres undefined)
GI50 (ACHN renal): 0.941 µM
TGI (ACHN renal): 2.13 µM
GI50 (HL-60(TB) leukemia): 1.42 µM
TGI (HL-60(TB) leukemia): 3.86 µM
GI50 (MDA-MB-231 breast): 1.82 µM
TGI (MDA-MB-231 breast): 4.37 µM
GI50 (NCI-H460 lung): 10.2 µM
TGI (NCI-H460 lung): 26.1 µM
GI50 (OVCAR-4 ovarian): 1.54 µM
TGI (OVCAR-4 ovarian): 4.52 µM
GI50 (RXF 393 renal): 1.42 µM
TGI (RXF 393 renal): 2.74 µM
GI50 (SK-MEL-2 melanoma): 2.85 µM
TGI (SK-MEL-2 melanoma): 8.73 µM
GI50 (UACC-257 melanoma): 1.73 µM
TGI (UACC-257 melanoma): 4.06 µM

Nc1nnnn1CCO
TGI (ACHN renal): > 100 µM
TGI (MDA-MB-231 breast): > 100 µM
TGI (NCI-H460 lung): > 100 µM
TGI (OVCAR-4 ovarian): > 100 µM
TGI (RXF 393 renal): > 100 µM
TGI (SK-MEL-2 melanoma): > 100 µM
TGI (UACC-257 melanoma): > 100 µM

CCN(CC)c1ccc(C(O)C2=CC(=O)c3ccccc3C2=O)cc1 (centres undefined)
GI50 (ACHN renal): 1.75 µM
TGI (ACHN renal): 4.6 µM
GI50 (HL-60(TB) leukemia): 7.1 µM
TGI (HL-60(TB) leukemia): > 100 µM
GI50 (MDA-MB-231 breast): 1.53 µM
TGI (MDA-MB-231 breast): 4.61 µM
GI50 (NCI-H460 lung): 10.8 µM
TGI (NCI-H460 lung): > 32.4 µM
GI50 (OVCAR-4 ovarian): 1.27 µM
TGI (OVCAR-4 ovarian): 3.1 µM
GI50 (SK-MEL-2 melanoma): 1.57 µM
TGI (SK-MEL-2 melanoma): 3.71 µM
GI50 (UACC-257 melanoma): 1.96 µM
TGI (UACC-257 melanoma): 5.02 µM

N=c1ccn(O)cc1/C=C1/C(=O)Nc2ccccc21
GI50 (ACHN renal): > 100 µM
TGI (ACHN renal): > 100 µM
GI50 (HL-60(TB) leukemia): > 100 µM
TGI (HL-60(TB) leukemia): > 100 µM
GI50 (MDA-MB-231 breast): > 100 µM
TGI (MDA-MB-231 breast): > 100 µM
GI50 (NCI-H460 lung): > 100 µM
TGI (NCI-H460 lung): > 100 µM
GI50 (OVCAR-4 ovarian): > 100 µM
TGI (OVCAR-4 ovarian): > 100 µM
GI50 (SK-MEL-2 melanoma): > 100 µM
TGI (SK-MEL-2 melanoma): > 100 µM
GI50 (UACC-257 melanoma): > 100 µM
TGI (UACC-257 melanoma): > 100 µM

Clc1ccc(-c2c3c(nn2-c2ccccn2)CCc2ccccc2-3)cc1Cl
GI50 (ACHN renal): 74 µM
TGI (ACHN renal): > 100 µM
GI50 (MDA-MB-231 breast): 73.7 µM
TGI (MDA-MB-231 breast): > 100 µM
GI50 (NCI-H460 lung): > 100 µM
TGI (NCI-H460 lung): > 100 µM
GI50 (OVCAR-4 ovarian): 39.8 µM
TGI (OVCAR-4 ovarian): > 100 µM
GI50 (RXF 393 renal): 94.6 µM
TGI (RXF 393 renal): > 100 µM
GI50 (SK-MEL-2 melanoma): > 100 µM
TGI (SK-MEL-2 melanoma): > 100 µM
GI50 (UACC-257 melanoma): > 100 µM
TGI (UACC-257 melanoma): > 100 µM

C#CCSc1cc(Cl)c(C)cc1S(=O)(=O)Nc1nc2ccccc2o1
GI50 (ACHN renal): 35.2 µM
TGI (ACHN renal): > 100 µM
GI50 (MDA-MB-231 breast): 46.8 µM
TGI (MDA-MB-231 breast): > 100 µM
GI50 (NCI-H460 lung): 37.5 µM
TGI (NCI-H460 lung): > 100 µM
GI50 (OVCAR-4 ovarian): 51 µM
TGI (OVCAR-4 ovarian): > 100 µM
GI50 (RXF 393 renal): 32.9 µM
TGI (RXF 393 renal): > 100 µM
GI50 (SK-MEL-2 melanoma): 21.6 µM
TGI (SK-MEL-2 melanoma): 43.6 µM
GI50 (UACC-257 melanoma): 29.4 µM
TGI (UACC-257 melanoma): 81.6 µM

C/C(=N\NS(=O)(=O)c1ccc(C)cc1)P(=O)(O)O
TGI (ACHN renal): > 100 µM
TGI (MDA-MB-231 breast): > 100 µM
TGI (NCI-H460 lung): > 100 µM
TGI (OVCAR-4 ovarian): > 100 µM
TGI (RXF 393 renal): > 100 µM
TGI (SK-MEL-2 melanoma): > 100 µM
TGI (UACC-257 melanoma): > 100 µM

COc1c2ccoc2c(OC)c2oc(=O)ccc12
TGI (ACHN renal): > 100 µM
TGI (HL-60(TB) leukemia): > 100 µM
TGI (MDA-MB-231 breast): > 100 µM
TGI (NCI-H460 lung): > 100 µM
TGI (OVCAR-4 ovarian): > 100 µM
TGI (RXF 393 renal): > 100 µM
TGI (UACC-257 melanoma): > 100 µM

NCCOCCOCCNc1nc(-c2ccccc2)nc(N2CCN(c3ccccn3)CC2)n1
GI50 (ACHN renal): 14.5 µM
TGI (ACHN renal): 27.9 µM
GI50 (HL-60(TB) leukemia): 9.47 µM
TGI (HL-60(TB) leukemia): 26.5 µM
GI50 (MDA-MB-231 breast): 14.5 µM
TGI (MDA-MB-231 breast): 28.8 µM
GI50 (NCI-H460 lung): 16.5 µM
TGI (NCI-H460 lung): 34.9 µM
GI50 (OVCAR-4 ovarian): 13.4 µM
TGI (OVCAR-4 ovarian): 26.3 µM
GI50 (RXF 393 renal): 10.1 µM
TGI (RXF 393 renal): 22.8 µM
GI50 (UACC-257 melanoma): 3.23 µM
TGI (UACC-257 melanoma): 12.9 µM

O=C(Nc1ccc(Cl)c(Cl)c1)Nc1c(Oc2ccc(Cl)c(Cl)c2)ccc(Cl)c1S(=O)(=O)O
GI50 (MDA-MB-231 breast): 1.98 µM
TGI (MDA-MB-231 breast): 66.8 µM
GI50 (NCI-H460 lung): 3.01 µM
TGI (NCI-H460 lung): > 100 µM
GI50 (RXF 393 renal): 1.92 µM
TGI (RXF 393 renal): 5.64 µM

Nc1nc2c(ncn2C2C=CC(CO)C2)c(=O)[nH]1 (centres undefined)
TGI (ACHN renal): > 100 µM
TGI (MDA-MB-231 breast): > 100 µM
TGI (NCI-H460 lung): > 100 µM
TGI (OVCAR-4 ovarian): > 100 µM
TGI (RXF 393 renal): > 100 µM
TGI (SK-MEL-2 melanoma): > 100 µM
TGI (UACC-257 melanoma): > 100 µM

CCOC(=O)c1cc2c(cc1Cl)SC(N(c1ccc(OC)cc1)S(=O)(=O)c1ccc(Cl)cc1)=NS2(=O)=O
GI50 (ACHN renal): 35 µM
TGI (ACHN renal): > 100 µM
GI50 (HL-60(TB) leukemia): 36.6 µM
TGI (HL-60(TB) leukemia): > 100 µM
GI50 (MDA-MB-231 breast): 47 µM
TGI (MDA-MB-231 breast): > 100 µM
GI50 (NCI-H460 lung): 37.3 µM
TGI (NCI-H460 lung): > 100 µM
GI50 (OVCAR-4 ovarian): 26.1 µM
TGI (OVCAR-4 ovarian): > 100 µM
GI50 (SK-MEL-2 melanoma): 24.7 µM
TGI (SK-MEL-2 melanoma): > 100 µM

O=C(c1ccccc1)C1OC1c1ccc([N+](=O)[O-])cc1 (centres undefined)
GI50 (ACHN renal): 6.08 µM
TGI (ACHN renal): > 100 µM
GI50 (MDA-MB-231 breast): 11 µM
TGI (MDA-MB-231 breast): 33.1 µM
GI50 (NCI-H460 lung): 10 µM
TGI (NCI-H460 lung): 40.2 µM
GI50 (OVCAR-4 ovarian): 4.57 µM
TGI (OVCAR-4 ovarian): > 100 µM
GI50 (RXF 393 renal): 6.38 µM
TGI (RXF 393 renal): 44.8 µM
GI50 (SK-MEL-2 melanoma): 5.88 µM
TGI (SK-MEL-2 melanoma): 34.9 µM
GI50 (UACC-257 melanoma): 16.7 µM
TGI (UACC-257 melanoma): > 100 µM

Source: PubChem BioAssay (NCI)
